# Source: ChEMBL document CHEMBL2157919, “Attenuation of collagen-induced arthritis by orally available imidazoline-based NF-κB inhibitors” (Bioorg Med Chem Lett, 2012)
# Active and inactive are the calls of the source. No cut-off for these calls is given here.
# What was measured:
# [1] = Plasma concentration in BALB/c mouse at 400 mg/kg, po after 3 hrs; format: ADME, organism-based; parameters: dose 400 mg/kg, route oral
# [2] = Plasma concentration in BALB/c mouse at 50 mg/kg, po after 3 hrs; format: ADME, organism-based; parameters: dose 50 mg/kg, route oral
# [3] = Plasma concentration in BALB/c mouse at 50 mg/kg, ip after 3 hrs; format: ADME, organism-based; parameters: dose 50 mg/kg, route intraperitoneal
# [4] = system: Mus musculus; experiment: Antiarthritic activity in BALB/c mouse type 2 collagen antibody-induced arthritis model assessed as inhibition of disease burden at 50 mg/kg, ip qd for 14 days measured on day 20 relative to control; format: functional; settings: route intraperitoneal
# [5] = system: Mus musculus; experiment: Antiinflammatory activity in BALB/c mouse assessed as reduction of LPS-induced TNFalpha production in serum at 5 to 100 mg/kg, po administered 1 hr before LPS challenge measured after 3 hrs by EIA; format: functional; parameters: scale not given: the % may be the effect or the level left; settings: dose mg/kg 5-100
# [6] = Plasma concentration in BALB/c mouse at 200 mg/kg, po after 3 hrs; format: ADME, organism-based; parameters: dose 200 mg/kg, route oral
# [7] = system: Mus musculus; experiment: Toxicity in BALB/c mouse type 2 collagen antibody-induced arthritis model assessed as change in body weight at 50 mg/kg, ip qd for 14 days measured on day 20; format: organism-based; parameters: dose 50 mg/kg, route intraperitoneal; settings: in vivo, 336 h
# [8] = system: Mus musculus; experiment: Antiarthritic activity in BALB/c mouse type 2 collagen antibody-induced arthritis model assessed as physiological disease-modifying affect at 50 mg/kg, ip qd for 14 days measured on day 20 relative to control; format: functional, organism-based; parameters: dose 50 mg/kg
# [9] = system: Mus musculus; experiment: Antiinflammatory activity in BALB/c mouse assessed as reduction of LPS-induced TNFalpha production in serum at 5 mg/kg, po administered 1 hr before LPS challenge measured after 3 hrs by EIA relative to LPS treated control; format: functional; parameters: scale not given: the % may be the effect or the level left
# [10] = system: Mus musculus; experiment: Hepatotoxicity in BALB/c mouse assessed as increase in serum ALT level at 50 mg/kg, ip after 13 to 19 days; format: toxicity, organism-based; parameters: dose 50 mg/kg, route intraperitoneal; settings: in vivo
# [11] = system: Mus musculus; experiment: Antiarthritic activity in BALB/c mouse type 2 collagen antibody-induced arthritis model assessed as reduction of pannus formation at 150 mg/kg, ip qd for 14 days measured on day 20 relative to control; format: functional, organism-based; parameters: dose 150 mg/kg
# [12] = system: Mus musculus; experiment: Antiarthritic activity in BALB/c mouse type 2 collagen antibody-induced arthritis model assessed as physiological disease-modifying affect at 150 mg/kg, ip qd for 14 days measured on day 20 relative to control; format: functional, organism-based; parameters: dose 150 mg/kg
# [13] = system: Mus musculus; experiment: Antiarthritic activity in BALB/c mouse type 2 collagen antibody-induced arthritis model assessed as reduction of bone resorption at 150 mg/kg, ip qd for 14 days measured on day 20 relative to control; format: functional, organism-based; parameters: dose 150 mg/kg
# [14] = system: Mus musculus; experiment: Hepatotoxicity in BALB/c mouse assessed as increase in serum ALT level at 150 mg/kg, po after 6 hrs; format: toxicity, organism-based; parameters: dose 150 mg/kg, route oral; settings: in vivo
# [15] = system: Mus musculus; experiment: Antiarthritic activity in BALB/c mouse type 2 collagen antibody-induced arthritis model assessed as reduction of inflammation at 150 mg/kg, ip qd for 14 days measured on day 20 relative to control; format: functional, organism-based; parameters: dose 150 mg/kg
# [16] = system: Mus musculus; experiment: Antiarthritic activity in BALB/c mouse type 2 collagen antibody-induced arthritis model assessed as reduction of exostosis at 150 mg/kg, ip qd for 14 days measured on day 20 relative to control; format: functional, organism-based; parameters: dose 150 mg/kg
# [17] = system: Mus musculus; experiment: Antiarthritic activity in BALB/c mouse type 2 collagen antibody-induced arthritis model assessed as inhibition of disease burden at 150 mg/kg, ip qd for 14 days measured on day 20 relative to control; format: functional; settings: route intraperitoneal
# [18] = system: Mus musculus; experiment: Hepatotoxicity in BALB/c mouse assessed as increase in serum ALT level at 50 mg/kg, po after 6 hrs; format: toxicity, organism-based; parameters: dose 50 mg/kg, route oral; settings: in vivo
# [19] = system: Mus musculus; experiment: Toxicity in BALB/c mouse type 2 collagen antibody-induced arthritis model assessed as change in body weight at 150 mg/kg, ip qd for 14 days measured on day 20; format: organism-based; parameters: dose 150 mg/kg, route intraperitoneal; settings: in vivo, 336 h
# [20] = system: Mus musculus; experiment: Hepatotoxicity in BALB/c mouse assessed as increase in serum ALT level at 150 mg/kg, ip after 13 to 19 days; format: toxicity, organism-based; parameters: dose 150 mg/kg, route intraperitoneal; settings: in vivo
# [21] = system: Mus musculus; experiment: Antiarthritic activity in BALB/c mouse type 2 collagen antibody-induced arthritis model assessed as reduction of cartilage damage at 150 mg/kg, ip qd for 14 days measured on day 20 relative to control; format: functional, organism-based; parameters: dose 150 mg/kg
# [22] = system: Mus musculus; experiment: Antiarthritic activity in BALB/c mouse type 2 collagen antibody-induced arthritis model assessed as physiological disease-modifying affect at 3 mg/kg, po qd for 14 days measured on day 20 relative to control; format: functional, organism-based; parameters: dose 3 mg/kg
# [23] = system: Mus musculus; experiment: Toxicity in BALB/c mouse type 2 collagen antibody-induced arthritis model assessed as change in body weight at 3 mg/kg, po qd for 14 days measured on day 20; format: organism-based; parameters: dose 3 mg/kg, route oral; settings: in vivo, 336 h
# [24] = system: Mus musculus; experiment: Antiarthritic activity in BALB/c mouse type 2 collagen antibody-induced arthritis model assessed as inhibition of disease burden at 3 mg/kg, po qd for 14 days measured on day 20 relative to control; format: functional
compound,measurement,setting,value
CCOC(=O)[C@]1(c2ccccc2)N=C(c2ccccc2)N(Cc2ccccc2)[C@@H]1c1ccccc1,concentration at 3 h,[1],9 µM
same,concentration at 3 h,[2],2 µM
same,concentration at 3 h,[3],6 µM
same,inhibition in vivo at 50 mg/kg,[4],67%
same,Activity,[5],50%
same,concentration at 3 h,[6],4 µM
same,Activity,[7],Non-toxic
same,Activity,[8],Active
same,Activity,[9],50%
CCOC(=O)C1(c2ccccc2)N=C(c2ccccc2)N(Cc2ccccc2)C1c1ccccc1 (racemic),Activity,[10],Non-toxic
same,Activity,[11],Active
same,Activity,[12],Active
same,Activity,[13],Active
same,Activity,[14],Non-toxic
same,Activity,[15],Active
same,Activity,[16],Active
same,inhibition in vivo at 150 mg/kg,[17],94%
same,Activity,[18],Non-toxic
same,Activity,[19],Non-toxic
same,Activity,[20],Non-toxic
same,Activity,[21],Active
C[C@@H]1C[C@H]2[C@@H]3CCC4=CC(=O)C=C[C@]4(C)[C@@]3(F)[C@@H](O)C[C@]2(C)[C@@]1(O)C(=O)CO [DEXAMETHASONE],Activity,[22],Active
same,Activity,[23],Toxic
same,inhibition in vivo at 3 mg/kg,[24],102%
